Data from patent US20240261410A1, “SODIUM DE[…] ACID AS […]” (priority 2023, published 2024).

What was measured:
[1] = test system: Saccharomyces cerevisiae NRRL Y-139; assay: MIC, two-fold broth dilution in TYG, 96-well microtiter plates; type: cell-based; settings: TunR2 in DMSO, TunR2-DOC and DOC in water, table prints no unit (dilution series in μg/mL)
Description: (§1) Seed cultures of Bacillus subtilis ATCC 6633, Escherichia coli ATCC 9637, Mycobacterium smegmatis mc^2 155, and Saccharomyces cerevisiae NRRL Y-139 were started from freezer stocks and grown in tryptone-yeast extract-glucose (TYG) broth for 24 hours at 27° C. Microbial dilutions were prepared as follows. Sterile PBS (phosphate buffer saline, 1 mL) was added to a glass tube using a disposable 10 mL pipet. Using a sterile loop microbial material was transferred from an agar plate, and the turbidity was measured and adjusted to 1.0 Macfarlane units. The inoculum dilution was then prepared. To a sterile 50 mL blue-capped centrifuge tube, 50 mL TYG stock media were added using a 25 mL disposable pipet. To this tube was then added 1 mL of the microbial dilution, and the contents were mixed by vortexing (this will give a 1:50 v/v dilution). This 1:50 v/v dilution inoculum was dispensed using a multichannel pipet, adding 100 μL to each well of a 96-well round-bottom microtiter plate.
(§2) MICs and MBICs were evaluated using two-fold broth dilution series in 96-well round-bottom microtiter plates. Diluted solutions were prepared by adding 20 μl of the 1 mg/mL stock of the TunR2 to 1.980 mL of TYG in a 15 mL blue-capped centrifuge tube for a total of 2 mL volume at 10 μg/mL. […] A blank of 20 μl dimethyl sulfoxide (DMSO) up to 2 mL TYG was also included. The microtiter plates were then set up as follows. To wells 1, 2, and 3 of the first row (A row) of the microtiter plate 200 μl of TYG media control were added. To wells 4, 5, and 6 in row A of the plate 200 μl TYG+TunR2 (10 μg/mL) were added. To wells 7, 8, and 9 in row A of the plate, 200 μl TYG+DOC (5 μg/mL) were added. And to wells 10, 11, and 12 in row A of the plate, 200 μl TYG+TunR2 (10 μg/mL)+DOC (5 μg/mL) were added. To the remaining wells of the microtiter plate 100 μl of the sterile TYG liquid media were added.
(§3) Two-fold dilutions were then prepared as follows. […] The box was placed into the 37° C. incubator and microbial growth and biofilm formation were assessed visually on a daily basis for six days.

[2] = test system: Escherichia coli ATCC 9637; assay: as above; type: cell-based; settings: TunR2 in DMSO, TunR2-DOC and DOC in water, table prints no unit (dilution series in μg/mL)
Description: as §1, §2, §3

[3] = test system: Bacillus subtilis ATCC 6633; assay: as above; type: cell-based; settings: TunR2 in DMSO, TunR2-DOC and DOC in water, table prints no unit (dilution series in μg/mL)
Description: as §1, §2, §3

[4] = DOSY-NMR, 10 mM in D2O, 600 MHz, not a partition coefficient
Description: 1H and 2D NMR (COSY, HSQC, and HMBC) spectra were recorded on a Bruker Avance III 500 MHz spectrometer operating at 125 MHz. The spectra were obtained in methanol-d4 or DMSO-d6 using residual solvent signals as internal standards. Diffusion orientated (DOSY) NMR spectra were obtained on a JEOL 600 mHz instrument using DOSY pulse sequences provide by the manufacturer.
The diffusion constants (log D) of residual deuterated water (HDO) and methanol (MeOD) are also indicated on the graphs. The corresponding ^1H-NMR spectra are shown above the graphs. All spectra were acquired at 600 MHz.

[5] = test system: Mycobacterium smegmatis mc^2 155; assay: MIC and MBIC (growth and biofilm formation), two-fold broth dilution in TYG; type: cell-based
Description: MICs and MBICs were evaluated using two-fold broth dilution series in 96-well round-bottom microtiter plates. […]
Two-fold dilutions were then prepared as follows. […] The box was placed into the 37° C. incubator and microbial growth and biofilm formation were assessed visually on a daily basis for six days. […]

[6] = Stability of the aqueous DOC solutions on standing at room temperature; type: physicochemical; settings: 18 hours at room temperature
Description: (§4) The modified tunicamycin TunR2 solid powder (8 mg, […]) and DOC solid powder (4.4 mg, […]) were vortexed together in an equimolar ratio, and was prepared in water for injection (3 mL) and stirred until dissolved. If needed, the pH was adjusted to 5.8 by addition of 10% acetic acid. The TunR2 was initially insoluble under these conditions, but began to dissolve after 5 minutes at 50° C. (in the range of about 50° C. to about 70° C.) and was completely soluble after 10 minutes at this temperature (FIG. 6A to FIG. 6C). […] The native tunicamycin solution became somewhat hazy after this time, but was readily clarified on gentle re-warming.
(§5) The present work undertaken to develop a water-soluble TunR2 formulation solubilized by sodium deoxycholate to reduce the solvent toxicity and to improve the physiochemical properties. Solutions were prepared either by mixing together TunR2 and DOC powders in equimolar portions and adding water, or by preparing a DOC aqueous stock solution and adding this directly to the TunR2. At 10 mg/mL, the TunR2 was initially insoluble under these conditions, but began to dissolve after 5 minutes at 50° C. and was completely soluble after 10 minutes at this temperature. […] The native tunicamycin solution became somewhat hazy after this time, but was readily clarify on gentle re-warming.

[7] = Solubilization in water with sodium deoxycholate; type: physicochemical; settings: at 50° C., same conditions for tunicamycin and TunR1
Description: as §4, §5

| Substance | Minimal Inhibitory Concentration [1] | Minimal Inhibitory Concentration [2] | Minimal Inhibitory Concentration [3] | diffusion constant (log D) [4] | effect of DOC control in the MIC assays ([5]; DOC at the same concentration as the TunR2) | Minimal Inhibitory Concentration ([5]; first figure of cell MIC/MBIC, TunR2 in DMSO, TunR2-DOC and DOC in water, unit not given) | state of aqueous DOC solution after cooling and standing [6] | time to complete dissolution in water with DOC ([7]; 8 mg TunR2 + 4.4 mg DOC in 3 mL water for injection) [min] | time to complete dissolution in water with DOC ([7]; at 10 mg/mL, equimolar DOC) [min] |
| --- | --- | --- | --- | --- | --- | --- | --- | --- | --- |
| 5β-cholan-24-oic acid-3α, 12α-diol sodium salt [DOC] | >2.5 | >2.5 | >2.5 | −9.66 | no effect | >2.5 |  |  |  |
| tunicamycin |  |  |  |  |  |  | somewhat hazy | ≤ 5 | ≤ 5 |
